Patent US9776995B2, “Bicyclic sulfonamide compounds as sodium channel inhibitors” (AMGEN INC., priority 2013, dated 2017)
Where two headings read alike, the source gives them in different places.

Biological target: Nav 1.7 (Homo sapiens (Human), UniProt Q15858)
Assay: in-vitro Nav 1.7 PX data
Type: cell-based

Sequence of Nav 1.7 (Q15858 whole entry): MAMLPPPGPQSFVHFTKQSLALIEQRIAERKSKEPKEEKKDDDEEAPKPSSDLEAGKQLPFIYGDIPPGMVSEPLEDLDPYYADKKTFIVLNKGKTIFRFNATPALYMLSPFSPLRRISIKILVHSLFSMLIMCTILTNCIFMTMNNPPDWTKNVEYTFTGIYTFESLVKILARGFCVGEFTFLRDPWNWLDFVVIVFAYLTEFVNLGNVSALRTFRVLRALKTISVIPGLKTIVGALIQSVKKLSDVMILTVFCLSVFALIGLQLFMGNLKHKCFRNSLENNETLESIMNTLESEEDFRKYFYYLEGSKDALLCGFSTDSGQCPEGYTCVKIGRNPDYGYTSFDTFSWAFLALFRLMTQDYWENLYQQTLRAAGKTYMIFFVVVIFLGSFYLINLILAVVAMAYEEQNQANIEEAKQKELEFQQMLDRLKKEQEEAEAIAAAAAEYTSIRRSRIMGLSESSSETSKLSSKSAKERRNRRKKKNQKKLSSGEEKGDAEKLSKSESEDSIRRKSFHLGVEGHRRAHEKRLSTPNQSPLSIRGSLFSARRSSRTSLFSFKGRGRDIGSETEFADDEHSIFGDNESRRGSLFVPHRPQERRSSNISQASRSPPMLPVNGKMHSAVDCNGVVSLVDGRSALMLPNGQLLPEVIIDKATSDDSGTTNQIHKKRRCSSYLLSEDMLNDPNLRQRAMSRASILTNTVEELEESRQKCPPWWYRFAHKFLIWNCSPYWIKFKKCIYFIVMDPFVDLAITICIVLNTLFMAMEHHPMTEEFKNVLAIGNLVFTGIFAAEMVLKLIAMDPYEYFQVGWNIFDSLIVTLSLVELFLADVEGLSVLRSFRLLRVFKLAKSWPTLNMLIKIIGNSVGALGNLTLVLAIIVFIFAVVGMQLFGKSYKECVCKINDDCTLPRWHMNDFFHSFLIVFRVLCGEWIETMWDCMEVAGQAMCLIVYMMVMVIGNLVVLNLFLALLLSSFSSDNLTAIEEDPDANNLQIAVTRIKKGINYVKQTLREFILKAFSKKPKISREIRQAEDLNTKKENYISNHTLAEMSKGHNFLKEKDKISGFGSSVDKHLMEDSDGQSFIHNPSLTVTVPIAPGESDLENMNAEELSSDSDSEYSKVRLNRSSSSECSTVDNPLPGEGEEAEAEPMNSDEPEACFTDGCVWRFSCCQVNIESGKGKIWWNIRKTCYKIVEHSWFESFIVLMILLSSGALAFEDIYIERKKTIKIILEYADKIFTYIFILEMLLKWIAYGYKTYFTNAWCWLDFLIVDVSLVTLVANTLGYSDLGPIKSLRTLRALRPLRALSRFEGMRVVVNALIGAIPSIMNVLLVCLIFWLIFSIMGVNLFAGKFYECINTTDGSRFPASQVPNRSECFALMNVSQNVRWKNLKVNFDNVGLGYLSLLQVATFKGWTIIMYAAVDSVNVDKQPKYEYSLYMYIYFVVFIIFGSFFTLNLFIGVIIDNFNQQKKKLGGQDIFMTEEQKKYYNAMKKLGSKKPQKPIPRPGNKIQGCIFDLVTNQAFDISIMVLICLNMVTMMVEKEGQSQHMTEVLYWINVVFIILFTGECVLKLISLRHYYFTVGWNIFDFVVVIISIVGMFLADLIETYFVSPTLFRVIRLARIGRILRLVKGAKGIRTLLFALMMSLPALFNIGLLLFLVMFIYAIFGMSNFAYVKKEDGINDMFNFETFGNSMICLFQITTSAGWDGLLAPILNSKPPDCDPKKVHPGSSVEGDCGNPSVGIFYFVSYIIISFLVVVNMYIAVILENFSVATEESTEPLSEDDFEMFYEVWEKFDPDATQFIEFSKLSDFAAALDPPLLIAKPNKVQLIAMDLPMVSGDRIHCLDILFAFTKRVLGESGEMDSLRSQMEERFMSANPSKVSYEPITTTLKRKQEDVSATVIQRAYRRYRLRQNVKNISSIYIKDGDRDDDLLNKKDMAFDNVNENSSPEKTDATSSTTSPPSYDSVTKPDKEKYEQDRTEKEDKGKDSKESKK

## COc1cc(-c2cccc(C(F)(F)F)c2)c(F)cc1-c1nncc2cc(S(=O)(=O)Nc3ccon3)ccc12 [Example 3, 1-(2-FLUORO-5-METHOXY-3′-(TRIFLUOROMETHYL)-[1,1′-BIPHENYL]-4-YL)-N-(ISOXAZOL-3-YL)PHTHALAZINE-6-SULFONAMIDE]
  IC50: 30.5 nM

## Cn1nccc1-c1cc(-c2cc(F)cc(F)c2)ccc1-c1nccc2cc(S(=O)(=O)Nc3ccon3)ccc12 [Example 4, 1-(3′,5′-DIFLUORO-3-(1-METHYL-1H-PYRAZOL-5-YL)-[1,1′-BIPHENYL]-4-YL)-N-(ISOXAZOL-3-YL)ISOQUINOLINE-6-SULFONAMIDE 2,2,2-TRIFLUOROACETATE]
in-vitro PX data
  IC50: 148 nM

## COc1nnc(NS(=O)(=O)c2ccc3c(-c4ccc(-c5cc(F)cc(F)c5)cc4OC)nccc3c2)s1 [Example 8, 1-(3′,5′-DIFLUORO-3-METHOXY-[1,1′-BIPHENYL]-4-YL)-N-(5-METHOXY-1,3,4-THIADIAZOL-2-YL)ISOQUINOLINE-6-SULFONAMIDE]
  IC50: 3290 nM

## O=S(=O)(Nc1nncs1)c1ccc2c(-c3ccc(-c4cccc(F)c4)cc3CO)nccc2c1 [Example 11, 1-(3′-FLUORO-3-(HYDROXYMETHYL)-[1,1′-BIPHENYL]-4-YL)-N-(1,3,4-THIADIAZOL-2-YL)ISOQUINOLINE-6-SULFONAMIDE]
in-vitro Nav 1.7 PX data
  IC50: 1600 nM

## O=S(=O)(Nc1ccon1)c1ccc2c(-c3ccc(-c4cccc(F)c4)cc3CO)nccc2c1 [Example 12, 1-(3′-FLUORO-3-(HYDROXYMETHYL)-[1,1′-BIPHENYL]-4-YL)-N-(ISOXAZOL-3-YL)ISOQUINOLINE-6-SULFONAMIDE 2,2,2-TRIFLUOROACETATE]
  IC50: 2210 nM

## COc1cc(-c2cc(F)cc(F)c2)ccc1-c1ccnc2cc(S(=O)(=O)Nc3nncs3)ccc12 [Example 13, 4-(3′,5′-DIFLUORO-3-METHOXY-[1,1′-BIPHENYL]-4-YL)-N-(1,3,4-THIADIAZOL-2-YL)QUINOLINE-7-SULFONAMIDE]
in-vitro PX (PatchXpress) data
  IC50: 453 nM

## COc1cc(-c2cccc(F)c2)c(Cl)cc1-c1ncnc2cc(S(=O)(=O)Nc3cccnn3)ccc12 [Example 15, 4-(2-CHLORO-3′-FLUORO-5-METHOXY-[1,1′-BIPHENYL]-4-YL)-N-(PYRIDAZIN-3-YL)QUINAZOLINE-7-SULFONAMIDE]
in-vitro PX (PatchXpress) data
  IC50: 110 nM

## COc1cc(-c2cccc(F)c2)ccc1-c1n[nH]c(=O)c2cc(S(=O)(=O)Nc3nncs3)ccc12 [Example 18, 1-(3′-FLUORO-3-METHOXY-[1,1′-BIPHENYL]-4-YL)-4-OXO-N-(1,3,4-THIADIAZOL-2-YL)-3,4-DIHYDROPHTHALAZINE-6-SULFONAMIDE]
in-vitro PX (PatchXpress) data
  IC50: 1420 nM

## COc1cc(-c2ccc(F)c(Cl)c2)c(Cl)cc1-c1ncnc2cc(S(=O)(=O)Nc3ccon3)ccc12 [Example 19, 4-(2,3′-DICHLORO-4′-FLUORO-5-METHOXY-[1,1′-BIPHENYL]-4-YL)-N-(ISOXAZOL-3-YL)QUINAZOLINE-7-SULFONAMIDE]
in-vitro PX (PatchXpress) data
  IC50: 7.8 nM

## COc1cc(N2CC(F)(F)C2)c(C#N)cc1-c1nccc2cc(S(=O)(=O)Nc3ccon3)ccc12 [Example 23, 1-(5-CYANO-4-(3,3-DIFLUOROAZETIDIN-1-YL)-2-METHOXYPHENYL)-N-(ISOXAZOL-3-YL)ISOQUINOLINE-6-SULFONAMIDE]
  IC50: 988 nM

## COc1cc(N2CC(F)(F)C2)c(C#N)cc1-c1nccc2cc(S(=O)(=O)Nc3nncs3)ccc12 [Example 24, 1-(5-CYANO-4-(3,3-DIFLUOROAZETIDIN-1-YL)-2-METHOXYPHENYL)-N-(1,3,4-THIADIAZOL-2-YL)ISOQUINOLINE-6-SULFONAMIDE]
in-vitro PX
  IC50: 1360 nM

## COc1cc(Oc2ccc(F)c(C)c2)ccc1-c1nccc2cc(S(=O)(=O)Nc3ccncn3)ccc12 [Example 29, 1-(4-(4-FLUORO-3-METHYLPHENOXY)-2-METHOXYPHENYL)-N-(PYRIMIDIN-4-YL)ISOQUINOLINE-6-SULFONAMIDE]
in-vitro Nav 1.7 PX data
  IC50: 1580 nM

## COc1cc(Oc2cc(C)cc(F)c2)ccc1-c1nccc2cc(S(=O)(=O)Nc3nncs3)ccc12 [Example 32, 1-(4-(3-FLUORO-5-METHYLPHENOXY)-2-METHOXYPHENYL)-N-(1,3,4-THIADIAZOL-2-YL)ISOQUINOLINE-6-SULFONAMIDE]
in-vitro PX (PatchXpress) data
  IC50: 129 nM

## COc1cc(-c2ncnc3cc(S(=O)(=O)Nc4ccon4)ccc23)c(C)cc1-c1ccc(Cl)c(C)c1 [Example 34]
in-vitro PX (PatchXpress) data
  IC50: 2610 nM

## COc1cc(-c2nccc3cc(S(=O)(=O)Nc4ccon4)ccc23)c(C)cc1-c1ccc(Cl)c(C)c1 [Example 35]
in-vitro Nav 1.7 PX data
  IC50: 3300 nM

## O=S(=O)(Nc1ccncn1)c1ccc2c(-c3ccc(C(F)(F)F)cc3C3CC3)ncnc2c1 [Example 36, 4-(2-CYCLOPROPYL-4-(TRIFLUOROMETHYL)-PHENYL)-N-(PYRIMIDIN-4-YL)QUINAZOLINE-7-SULFONAMIDE]
in-vitro PX (PatchXpress) data
  IC50: 744 nM

## COc1cc(C(F)(F)F)ccc1-c1ncnc2cc(S(=O)(=O)Nc3ccon3)ccc12 [Example 38, N-(ISOXAZOL-3-YL)-4-(2-METHOXY-4-(TRIFLUOROMETHYL)PHENYL)QUINAZOLINE-7-SULFONAMIDE]
  IC50: 2570 nM

## Cc1ccc(Oc2ccccn2)cc1-c1nccc2cc(S(=O)(=O)Nc3ccncn3)ccc12 [Example 40, 1-(2-METHYL-5-(PYRIDIN-2-YLOXY)PHENYL)-N-(PYRIMIDIN-4-YL)ISOQUINOLINE-6-SULFONAMIDE]
in-vitro Nav 1.7 PX data
  IC50: 5690 nM

## COc1nc(Oc2ccc(F)cc2)ccc1-c1nccc2cc(S(=O)(=O)Nc3ccncn3)ccc12 [Example 45, 1-(6-(4-FLUOROPHENOXY)-2-METHOXYPYRIDIN-3-YL)-N-(PYRIMIDIN-4-YL)ISOQUINOLINE-6-SULFONAMIDE]
PatchXpress (PX), in vitro
  IC50: 1510 nM

## COc1nc(N(CC(C)C)CC(C)C)ccc1-c1nccc2cc(S(=O)(=O)Nc3ccncn3)ccc12 [Example 46, 1-(6-(DIISOBUTYLAMINO)-2-METHOXYPYRIDIN-3-YL)-N-(PYRIMIDIN-4-YL)ISOQUINOLINE-6-SULFONAMIDE]
PatchXpress (PX), in vitro
  IC50: 13600 nM

## COc1nc(NCC(C)(C)C)ccc1-c1nccc2cc(S(=O)(=O)Nc3ccncn3)ccc12 [Example 47, 1-(2-METHOXY-6-(NEOPENTYLAMINO)PYRIDIN-3-YL)-N-(PYRIMIDIN-4-YL)ISOQUINOLINE-6-SULFONAMIDE]
PatchXpress (PX), in vitro
  IC50: 899 nM

## COc1cc(-c2cccc(F)c2)ccc1C1c2ccc(S(=O)(=O)Nc3nncs3)cc2CCN1C(C)=O (stereo not drawn) [Example 52, 2-ACETYL-1-(3′-FLUORO-3-METHOXY-[1,1′-BIPHENYL]-4-YL)-N-(1,3,4-THIADIAZOL-2-YL)-1,2,3,4-TETRAHYDROISOQUINOLINE-6-SULFONAMIDE]
in-vitro PX
  IC50: 1690 nM

## COc1nc(OC2CCCCC2)ccc1-c1nccc2cc(S(=O)(=O)Nc3ccncn3)ccc12 [Example 65, 1-(6-(cyclohexyloxy)-2-methoxy-3-pyridinyl)-N-4-pyrimidinyl-6-isoquinolinesulfonamide]
PatchXpress (PX), in vitro
  IC50: 1730 nM

## COc1nc(OCC(C)(C)C)ccc1-c1nccc2cc(S(=O)(=O)Nc3ccncn3)ccc12 [Example 67, 1-(6-(2,2-dimethylpropoxy)-2-methoxy-3-pyridinyl)-N-4-pyrimidinyl-6-isoquinolinesulfonamide]
PatchXpress (PX), in vitro
  IC50: 1010 nM

## COc1nc(N(C)CC(C)C)ccc1-c1nccc2cc(S(=O)(=O)Nc3ccncn3)ccc12 [Example 68, 1-(2-methoxy-6-(methyl(2-methylpropyl)amino)-3-pyridinyl)-N-4-pyrimidinyl-6-isoquinolinesulfonamide]
PatchXpress (PX), in vitro
  IC50: 2880 nM

## COc1ccc(-c2nccc3cc(S(=O)(=O)Nc4ccncn4)ccc23)c(NCC(C)(C)C)n1 [Example 70, 1-(2-((2,2-dimethylpropyl)amino)-6-methoxy-3-pyridinyl)-N-4-pyrimidinyl-6-isoquinolinesulfonamide]
PatchXpress (PX), in vitro
  IC50: 2510 nM

## COc1nc(N2CCC(F)(F)CC2)ccc1-c1nccc2cc(S(=O)(=O)Nc3ccncn3)ccc12 [Example 71, 1-(6-(4,4-difluoro-1-piperidinyl)-2-methoxy-3-pyridinyl)-N-4-pyrimidinyl-6-isoquinolinesulfonamide]
PatchXpress (PX), in vitro
  IC50: 834 nM

## COc1nc(N2CCCC2)ccc1-c1nccc2cc(S(=O)(=O)Nc3ccncn3)ccc12 [Example 72, 1-(2-methoxy-6-(1-pyrrolidinyl)-3-pyridinyl)-N-4-pyrimidinyl-6-isoquinolinesulfonamide]
PatchXpress (PX), in vitro
  IC50: 7710 nM

## COc1nc(NC2CCC(F)(F)CC2)ccc1-c1nccc2cc(S(=O)(=O)Nc3ccncn3)ccc12 [Example 74, 1-(6-((4,4-difluorocyclohexyl)amino)-2-methoxy-3-pyridinyl)-N-4-pyrimidinyl-6-isoquinolinesulfonamide]
PatchXpress (PX), in vitro
  IC50: 811 nM

## COc1nc(OC2CCC(F)(F)CC2)ccc1-c1nccc2cc(S(=O)(=O)Nc3ccncn3)ccc12 [Example 75, 1-(6-((4,4-difluorocyclohexyl)oxy)-2-methoxy-3-pyridinyl)-N-4-pyrimidinyl-6-isoquinolinesulfonamide]
PatchXpress (PX), in vitro
  IC50: 727 nM

## COc1cc(-c2ccc(Cl)c(C)c2)c(F)cc1-c1nccc2cc(S(=O)(=O)Nc3cccnn3)ccc12 [Example 87, 1-(4′-chloro-2-fluoro-5-methoxy-3′-methyl-4-biphenylyl)-N-3-pyridazinyl-6-isoquinolinesulfonamide]
PatchXpress (PX), in vitro
  IC50: 178 nM

## COc1cc(-c2ccc(Cl)c(C)c2)c(F)cc1-c1nccc2cc(S(=O)(=O)Nc3ncccn3)ccc12 [Example 88, 1-(4′-chloro-2-fluoro-5-methoxy-3′-methyl-4-biphenylyl)-N-2-pyrimidinyl-6-isoquinolinesulfonamide]
PatchXpress (PX), in vitro
  IC50: 227 nM

## COc1cc(-c2ccc(F)c(C)c2)c(F)cc1-c1nccc2cc(S(=O)(=O)Nc3ccon3)ccc12 [Example 89, 1-(2,4′-difluoro-5-methoxy-3′-methyl-4-biphenylyl)-N-3-isoxazolyl-6-isoquinolinesulfonamide]
PatchXpress (PX), in vitro
  IC50: 96.4 nM

## COc1cc(-c2ccc(Cl)c(C)c2)c(F)cc1-c1nccc2cc(S(=O)(=O)Nc3ccon3)ccc12 [Example 90, 1-(4′-chloro-2-fluoro-5-methoxy-3′-methyl-4-biphenylyl)-N-3-isoxazolyl-6-isoquinolinesulfonamide]
PatchXpress (PX), in vitro
  IC50: 59.5 nM

## COc1cc(-c2ccc(C)c(Cl)c2)c(F)cc1-c1nccc2cc(S(=O)(=O)Nc3ccon3)ccc12 [Example 91, 1-(3′-chloro-2-fluoro-5-methoxy-4′-methyl-4-biphenylyl)-N-3-isoxazolyl-6-isoquinolinesulfonamide]
PatchXpress (PX), in vitro
  IC50: 101 nM

## COc1cc(-c2cc(F)cnc2OC)c(F)cc1-c1nccc2cc(S(=O)(=O)Nc3ncccn3)ccc12 [Example 92, 1-(5-fluoro-4-(5-fluoro-2-methoxy-3-pyridinyl)-2-methoxyphenyl)-N-2-pyrimidinyl-6-isoquinolinesulfonamide]
PatchXpress (PX), in vitro
  IC50: 278 nM
